Some test systems named below: SF-268 CNS; A498 renal; HCT-15 colon; SN12C renal; HOP-92 NSCLC; OVCAR-5 ovarian; HOP-62 NSCLC; SK-OV-3 ovarian; HL-60(TB) leukemia; SF-539 CNS.
Common to all, as to assay: NCI tumour cell line growth inhibition, 48 h

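Protocol summary: plate cells (96-well), add compound at 5 concentrations, incubate 48 h, interpolate endpoints linearly. Abbreviation: GI50, concentration required for 50% inhibition of growth. Definition used: TGI = concentration required for complete inhibition of growth.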

As to `COc1ccc(C2SC(C)C(=O)N2NC(=O)C(O)c2ccccc2)cc1` (stereo not given), the GI50 in the experiment with SF-268 CNS, with A498 renal, in the experiment on HCT-15 colon, in the experiment on SN12C renal, in the experiment with HOP-92 NSCLC and with OVCAR-5 ovarian was more than 100 µM each time. Also, the GI50 was more than 100 µM with HOP-62 NSCLC, 63.1 µM with SK-OV-3 ovarian, more than 100 µM with HL-60(TB) leukemia and more than 100 µM with SF-539 CNS. In addition, the TGI in the experiment with SF-268 CNS, in the experiment with A498 renal, in the experiment with HCT-15 colon, in the experiment with SN12C renal, in the experiment on HOP-92 NSCLC and in the experiment on OVCAR-5 ovarian was more than 100 µM each time. The TGI in the experiment on HOP-62 NSCLC, with SK-OV-3 ovarian, in the experiment with HL-60(TB) leukemia and in the experiment on SF-539 CNS was more than 100 µM throughout.

Consider `CCN1CCN(Cc2ccc3cc(C(=O)Nc4cc(NC(=O)c5ccc6c(c5)OCCO6)ccc4F)ccc3n2)CC1`, for which the GI50 in the experiment with SF-268 CNS is 0.0742 µM; in the experiment with A498 renal, 0.0159 µM; with HCT-15 colon, 0.0376 µM; with SN12C renal, 0.0524 µM; in the experiment with HOP-92 NSCLC, 0.0555 µM; in the experiment on OVCAR-5 ovarian it was 0.0858 µM. Further, the GI50 in the experiment on HOP-62 NSCLC is 0.0617 µM; in the experiment with SK-OV-3 ovarian, 0.0341 µM; in the experiment with HL-60(TB) leukemia, 0.0238 µM; with SF-539 CNS, 0.0824 µM. In addition, the TGI worked out at 10 µM in the experiment on SF-268 CNS; 0.265 µM with A498 renal; 2.25 µM with HCT-15 colon; 1.82 µM in the experiment with SN12C renal; 0.557 µM in the experiment with HOP-92 NSCLC; 12.5 µM in the experiment with OVCAR-5 ovarian. The TGI turned out to be 12 µM with HOP-62 NSCLC, 1.14 µM with SK-OV-3 ovarian, 0.182 µM in the experiment on HL-60(TB) leukemia and 0.72 µM in the experiment with SF-539 CNS.

Turning to `C[C@H]1[C@H](C)CC[C@]2(C(=O)O)CC[C@]3(C)C(=CC[C@@H]4[C@@]5(C)CC[C@H](OC(=O)/C=C\c6ccc(O)cc6)C(C)(C)[C@@H]5CC[C@]43C)[C@H]12`, the GI50 with SF-268 CNS was 3.23 µM; with A498 renal it was 15 µM; in the experiment with HCT-15 colon, 3.08 µM; with SN12C renal it was 1.67 µM; with HOP-92 NSCLC, 4.25 µM; with OVCAR-5 ovarian, 12.3 µM. Moreover, the figures for the GI50 with HOP-62 NSCLC, in the experiment with SK-OV-3 ovarian and in the experiment with SF-539 CNS were 2.26 µM, 11.9 µM and 2.9 µM, respectively. The TGI worked out at 14.8 µM in the experiment with SF-268 CNS; 29.2 µM with A498 renal; 12.7 µM in the experiment on HCT-15 colon; 6.76 µM with SN12C renal; 19.2 µM in the experiment with HOP-92 NSCLC; 27 µM in the experiment with OVCAR-5 ovarian. Also, the TGI in the experiment on HOP-62 NSCLC turned out to be 12.8 µM; in the experiment on SK-OV-3 ovarian, 26.5 µM; in the experiment with SF-539 CNS, 13.5 µM.

As to `Cc1ccc(C2CC(c3cccc(Nc4ccncc4)c3)=NN2c2ccc(Cl)cc2)cc1` (stereo not given), the GI50 is 1.38 µM in the experiment with A498 renal; 1.83 µM in the experiment on HCT-15 colon; 1.66 µM with SN12C renal; 1.38 µM in the experiment with HOP-92 NSCLC; 1.61 µM with OVCAR-5 ovarian; 1.65 µM in the experiment with SK-OV-3 ovarian. Also, the GI50 in the experiment with HL-60(TB) leukemia was 1.92 µM; in the experiment with SF-539 CNS it was 1.74 µM. The TGI stood at 2.7 µM in the experiment with A498 renal; 3.43 µM in the experiment on HCT-15 colon; 3.13 µM in the experiment with SN12C renal; 2.74 µM in the experiment with HOP-92 NSCLC; 2.99 µM with OVCAR-5 ovarian; 3.17 µM in the experiment with SK-OV-3 ovarian. For the same molecule, the TGI was found to be 4 µM in the experiment on HL-60(TB) leukemia and 3.14 µM in the experiment on SF-539 CNS.

Consider `Cc1ccc(S(=O)(=O)NC(=O)Nc2nc(Cl)cc(Cl)n2)cc1`, for which the TGI in the experiment with SF-268 CNS, in the experiment with A498 renal, in the experiment on SN12C renal, in the experiment with HOP-92 NSCLC, in the experiment with OVCAR-5 ovarian and with HOP-62 NSCLC was more than 100 µM each time. In addition, the TGI with SK-OV-3 ovarian, in the experiment with HL-60(TB) leukemia and with SF-539 CNS was more than 100 µM each time.

Consider `C#Cc1ccc(-n2c(/C=C/c3ccc4ccccc4n3)nc3ncccc3c2=O)cc1`, for which the GI50 is 0.488 µM in the experiment with SF-268 CNS; 0.138 µM in the experiment with A498 renal; 0.469 µM with SN12C renal; 0.37 µM with HOP-92 NSCLC; 0.85 µM in the experiment with HOP-62 NSCLC; 0.351 µM in the experiment with SK-OV-3 ovarian. Further, the GI50 with HL-60(TB) leukemia was 0.297 µM; in the experiment with SF-539 CNS, 0.593 µM. For the same molecule, the TGI in the experiment on SF-268 CNS was 2.33 µM; in the experiment with A498 renal, 0.615 µM; in the experiment with SN12C renal, 2.03 µM; in the experiment with HOP-92 NSCLC, 1.8 µM; in the experiment on HOP-62 NSCLC, 2.36 µM; in the experiment on SK-OV-3 ovarian it was 1.08 µM. For the same molecule, the results for the TGI in the experiment on HL-60(TB) leukemia and in the experiment with SF-539 CNS were 0.851 µM and 1.93 µM, respectively.

As for `Cc1cc(NC(=O)C(=O)Cc2nc3ccccc3s2)ccc1Cl`, the TGI in the experiment on SF-268 CNS, in the experiment on A498 renal, with HCT-15 colon, in the experiment with SN12C renal, in the experiment with HOP-92 NSCLC and in the experiment on OVCAR-5 ovarian was more than 100 µM in each case. Moreover, the TGI with HOP-62 NSCLC, in the experiment on SK-OV-3 ovarian and with SF-539 CNS was more than 100 µM throughout.

In the case of `Cn1c2ccccc2c(=S)c2cc(NC(=O)CCCCC(=O)Nc3ccc4c(c3)c(=S)c3ccccc3n4C)ccc21`, the TGI in the experiment on SF-268 CNS, in the experiment with A498 renal, in the experiment with HCT-15 colon, in the experiment on SN12C renal, with HOP-92 NSCLC and in the experiment on OVCAR-5 ovarian was more than 100 µM in each case. The TGI in the experiment on HOP-62 NSCLC, in the experiment with SK-OV-3 ovarian and with SF-539 CNS was more than 100 µM throughout.

As for `Cc1ccccc1C(C#N)/C(=N/NC(=O)C(=O)NN)C(=O)Nc1cccc(C(F)(F)F)c1` (stereo not given), the TGI in the experiment with SF-268 CNS, with A498 renal, in the experiment with HCT-15 colon, with SN12C renal, with HOP-92 NSCLC and in the experiment with OVCAR-5 ovarian was more than 100 µM each time. Besides, the TGI in the experiment with HOP-62 NSCLC, in the experiment on HL-60(TB) leukemia and in the experiment with SF-539 CNS was more than 100 µM in each case.

Turning to `O=C(Cc1nc2ccccc2s1)NC12CC3CC(CC(C3)C1)C2`, the TGI in the experiment on SF-268 CNS, with A498 renal, in the experiment on HCT-15 colon, in the experiment on SN12C renal, with HOP-92 NSCLC and with HOP-62 NSCLC was more than 100 µM throughout. Further, the TGI in the experiment on SK-OV-3 ovarian, in the experiment on HL-60(TB) leukemia and in the experiment with SF-539 CNS was more than 100 µM in each case.

For the origin of these results see PubChem BioAssay (NCI).
